Here are results for 1 compound from patent US6838096B2, “Black soybean polysaccharides” (Taipei Veterans General Hospital, priority 2001, dated 2005).

In one data set the test system is BALB/c mice. The experiment in a line: Myelopoietic activity in 5-FU-treated BALB/c mice with or without CT26 tumor implantation. The class given is in vivo. The settings on record: 5-FU 150 mg/kg i.p. Here is the method: BALB/c mice (6-10 weeks old, 20±5 g) were obtained and kept in specific pathogen-free conditions with a controlled temperature and humidity, under a 12-h light/dark cycle, and given free access to food and water. All experiments were performed in accordance with the guidelines provided in the NIH Guide for the Care and Use of Laboratory Animals (DHHS publication No. NIH 85-23, revised 1996). CT26 murine colon adenocarcinoma and BALB/c syngenic were maintained in RPMI 1640 medium (Life technology, Grand Island, N.Y.) supplemented with 10% heat-inactivated FCS (HyClone, Logan, Utah) and 2 mM L-glutamine (Sigma, St. Louis, Mo.), and cultured at 37° C. in a humidified atmosphere containing 5% CO2. These cells were subcutaneously implanted into left flank of BALB/c mice.
For non-tumor implanted experiments, 5-FU (150 mg/kg body weight) was intraperitoneally (i.p.) injected into BALB/c mice on day 0, and PSBS (100 or 400 mg/kg body weight) was given by oral or interperitoneal administration daily once for 5 consecutive days 6 h after 5-FU injection. Mice in control group received normal saline at the same time. While in tumor-implanted model, 1×10^6 CT26 tumor cells in PBS per mouse was s.c. injected in the left flank of mice. […]

For `O=c1[nH]cc(F)c(=O)[nH]1` [5-FU, 5-fluorouracil], the CFU-GM colony numbers with 5-FU-treated mice (5-FU alone, single dose 150 mg/kg i.p., day 11) was found to be 41±5 colonies. The myelosuppression result in the data set with 5-FU-treated mice (mouse, in vivo, ip, 150 mg/kg) is reported as “apparent myelosuppression”. Moreover, the number of leukocytes result with 5-FU-treated mice (mouse, in vivo, ip, 150 mg/kg) is recorded as “significantly decreased”; in the data set with BALB/c mice, “significantly reduced”.
